ChEMBL document CHEMBL6153029, “Next-generation cancer therapeutics: PROTACs and the role of heterocyclic warheads in targeting resistance” (Eur J Med Chem, 2025)

What was measured:
Calu-6 = experiment: Antiproliferative activity against human Calu-6 cells assessed as reduction in cell viability incubated for 72 hrs by CCK-8 assay; type: functional, cell-based; conditions: Calu-6, 72 h
A-375 = experiment: Antiproliferative activity against human A-375 cells assessed as reduction in cell viability incubated for 72 hrs by CCK-8 assay; type: functional, cell-based; conditions: A-375, 72 h
HCT-116 = experiment: Antiproliferative activity against human HCT-116 cells assessed as reduction in cell viability incubated for 72 hrs by CCK-8 assay; type: functional, cell-based; conditions: HCT-116, 72 h
[1] = target: T1, Protein cereblon/Mitogen-activated protein kinase 3/Mitogen-activated protein kinase 1 (Homo sapiens, UniProt P27361+P28482+Q96SW2); experiment: PROTAC activity at CRBN/ERK1/2 in human HCT-116 cells assessed as induction of ERK1/2 degradation incubated for 48 hrs by Western blot analysis; type: cell-based
T1 sequence (P27361 whole entry): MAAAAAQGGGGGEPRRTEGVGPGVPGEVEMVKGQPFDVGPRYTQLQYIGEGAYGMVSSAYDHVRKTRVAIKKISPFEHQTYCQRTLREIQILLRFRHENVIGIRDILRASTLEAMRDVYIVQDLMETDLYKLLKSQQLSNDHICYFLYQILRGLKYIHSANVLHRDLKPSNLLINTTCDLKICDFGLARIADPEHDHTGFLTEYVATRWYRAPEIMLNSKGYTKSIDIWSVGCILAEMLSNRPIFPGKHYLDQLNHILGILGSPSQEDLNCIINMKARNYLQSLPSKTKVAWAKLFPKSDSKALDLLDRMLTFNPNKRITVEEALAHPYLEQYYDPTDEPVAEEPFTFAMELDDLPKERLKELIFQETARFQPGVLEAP
T1 sequence (P28482 whole entry): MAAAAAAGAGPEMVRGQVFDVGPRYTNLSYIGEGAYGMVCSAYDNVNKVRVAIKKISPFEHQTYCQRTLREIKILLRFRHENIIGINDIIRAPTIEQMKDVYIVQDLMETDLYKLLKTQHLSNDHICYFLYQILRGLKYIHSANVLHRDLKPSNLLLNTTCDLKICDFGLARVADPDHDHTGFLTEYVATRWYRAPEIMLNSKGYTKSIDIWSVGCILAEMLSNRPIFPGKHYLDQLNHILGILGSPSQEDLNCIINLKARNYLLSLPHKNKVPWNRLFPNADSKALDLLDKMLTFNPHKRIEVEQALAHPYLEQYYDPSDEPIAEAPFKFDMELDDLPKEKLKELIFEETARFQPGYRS
T1 sequence (Q96SW2 whole entry): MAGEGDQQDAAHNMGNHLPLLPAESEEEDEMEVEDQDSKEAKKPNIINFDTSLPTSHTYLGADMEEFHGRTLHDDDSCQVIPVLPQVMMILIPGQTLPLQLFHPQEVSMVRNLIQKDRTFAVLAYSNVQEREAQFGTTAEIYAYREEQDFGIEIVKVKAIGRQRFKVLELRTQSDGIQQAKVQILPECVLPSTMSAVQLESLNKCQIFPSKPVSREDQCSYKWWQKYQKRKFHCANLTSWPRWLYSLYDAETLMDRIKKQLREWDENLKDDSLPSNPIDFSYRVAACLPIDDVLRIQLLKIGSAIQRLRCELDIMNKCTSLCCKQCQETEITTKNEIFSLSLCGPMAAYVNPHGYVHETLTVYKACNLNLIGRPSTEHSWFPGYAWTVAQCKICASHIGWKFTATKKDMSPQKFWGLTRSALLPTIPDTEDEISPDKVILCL

[2] = target: T1, Protein cereblon/Mitogen-activated protein kinase 3/Mitogen-activated protein kinase 1; experiment: PROTAC activity at CRBN/ERK1/2 in human Calu-6 cells assessed as induction of ERK1/2 degradation incubated for 48 hrs by Western blot analysis; type: cell-based
[3] = target: T2, Bromodomain-containing protein 4 (Homo sapiens, UniProt O60885); experiment: Inhibition of BRD4 (unknown origin)
[4] = target: T2, Bromodomain-containing protein 4; experiment: Inhibition of BRD4 (unknown origin) at 1 micromol/L relative to control; conditions: dose 1.0 µmol/L
HL-60 = experiment: Antiproliferative activity against human HL-60 cells; type: functional, cell-based
[5] = target: T2, Bromodomain-containing protein 4; experiment: Inhibition of BRD4 (unknown origin) at 0.01 umol/L relative to control; conditions: dose 0.01 µmol/L
THP-1 = experiment: Antiproliferative activity against human THP-1 cells; type: functional, cell-based
[6] = target: T3, Protein cereblon/Bromodomain-containing protein 4 (Homo sapiens, UniProt O60885+Q96SW2); experiment: PROTAC activity at CRBN/BRD4 in human MV4-11 cells assessed as induction of degradation of BRD4 by measuring maximal degradation at 10 uM incubated after 24 hrs by Western blot analysis relative to control; type: cell-based
T3 sequence (Q96SW2 whole entry, looked up, other chains not shown): as the sequence (Q96SW2 whole entry) above

[7] = target: T3, Protein cereblon/Bromodomain-containing protein 4; experiment: PROTAC activity at CRBN/BRD4 in human MV4-11 cells assessed as induction of degradation of BRD4 measured after 24 hrs by Western blot analysis; type: cell-based
MV4-11 = experiment: Antiproliferative activity against human MV4-11 cells; type: functional, cell-based
MDA-MB-231 [8] = experiment: Antiproliferative activity against human MDA-MB-231 cells
T47D = experiment: Antiproliferative activity against human T47D cells
MCF7 = experiment: Antiproliferative activity against human MCF7 cells
MDA-MB-468 = experiment: Antiproliferative activity against human MDA-MB-468 cells
MDA-MB-231 [9] = experiment: Induction of cell cycle arrest in human MDA-MB-231 cells assessed as G0/G1 phase arrest at 12.3 to 1000 nM incubated for 24 hrs by PI staining based flow cytometry analysis; type: functional; conditions: dose 12.3-1000 nM
[10] = Intrinsic clearance in mouse liver microsomes; type: ADME, Microsome; conditions: read-out: CLH
Pfeiffer [11] = experiment: Antiproliferative activity against human Pfeiffer cells
Pfeiffer [12] = experiment: Induction of cell cycle arrest in human Pfeiffer cells assessed as G0/G1 phase arrest at 100 nM incubated for 24 hrs by PI staining based flow cytometry analysis; type: functional
[13] = Half life in mouse; type: ADME, organism-based; conditions: in vivo
[14] = target: Mitogen-activated protein kinase kinase kinase kinase 1 (Homo sapiens, UniProt Q92918); experiment: Inhibition of HPK1 (unknown origin)
Mitogen-activated protein kinase kinase kinase kinase 1, sequence (Q92918 whole entry): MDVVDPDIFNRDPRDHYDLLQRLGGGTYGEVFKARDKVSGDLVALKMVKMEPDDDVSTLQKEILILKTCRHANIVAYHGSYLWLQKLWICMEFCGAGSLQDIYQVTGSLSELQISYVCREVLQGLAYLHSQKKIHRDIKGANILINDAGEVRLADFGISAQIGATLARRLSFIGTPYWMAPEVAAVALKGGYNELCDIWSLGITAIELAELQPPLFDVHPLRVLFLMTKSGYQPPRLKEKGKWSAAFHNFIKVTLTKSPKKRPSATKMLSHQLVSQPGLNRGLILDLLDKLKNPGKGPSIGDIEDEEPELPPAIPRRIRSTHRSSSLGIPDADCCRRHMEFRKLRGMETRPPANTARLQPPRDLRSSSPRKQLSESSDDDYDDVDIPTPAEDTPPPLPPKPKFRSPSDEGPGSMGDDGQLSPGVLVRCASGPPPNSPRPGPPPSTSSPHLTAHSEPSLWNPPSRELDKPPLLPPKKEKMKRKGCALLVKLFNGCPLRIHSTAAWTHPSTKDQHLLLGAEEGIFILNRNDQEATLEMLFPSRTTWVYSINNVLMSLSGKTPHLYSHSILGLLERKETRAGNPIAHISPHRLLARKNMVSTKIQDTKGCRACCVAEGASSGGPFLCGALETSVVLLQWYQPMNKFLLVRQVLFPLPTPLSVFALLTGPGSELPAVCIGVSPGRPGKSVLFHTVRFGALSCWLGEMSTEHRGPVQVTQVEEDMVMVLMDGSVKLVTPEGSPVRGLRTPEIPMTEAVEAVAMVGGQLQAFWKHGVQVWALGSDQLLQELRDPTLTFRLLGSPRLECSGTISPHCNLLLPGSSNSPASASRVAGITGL

[15] = target: Platelet-derived growth factor receptor beta (Homo sapiens) (UniProt P09619); experiment: Inhibition of PDGFRbeta (unknown origin) measured for 48 hrs at 10 uM relative to control
Platelet-derived growth factor receptor beta (Homo sapiens), sequence (P09619 whole entry): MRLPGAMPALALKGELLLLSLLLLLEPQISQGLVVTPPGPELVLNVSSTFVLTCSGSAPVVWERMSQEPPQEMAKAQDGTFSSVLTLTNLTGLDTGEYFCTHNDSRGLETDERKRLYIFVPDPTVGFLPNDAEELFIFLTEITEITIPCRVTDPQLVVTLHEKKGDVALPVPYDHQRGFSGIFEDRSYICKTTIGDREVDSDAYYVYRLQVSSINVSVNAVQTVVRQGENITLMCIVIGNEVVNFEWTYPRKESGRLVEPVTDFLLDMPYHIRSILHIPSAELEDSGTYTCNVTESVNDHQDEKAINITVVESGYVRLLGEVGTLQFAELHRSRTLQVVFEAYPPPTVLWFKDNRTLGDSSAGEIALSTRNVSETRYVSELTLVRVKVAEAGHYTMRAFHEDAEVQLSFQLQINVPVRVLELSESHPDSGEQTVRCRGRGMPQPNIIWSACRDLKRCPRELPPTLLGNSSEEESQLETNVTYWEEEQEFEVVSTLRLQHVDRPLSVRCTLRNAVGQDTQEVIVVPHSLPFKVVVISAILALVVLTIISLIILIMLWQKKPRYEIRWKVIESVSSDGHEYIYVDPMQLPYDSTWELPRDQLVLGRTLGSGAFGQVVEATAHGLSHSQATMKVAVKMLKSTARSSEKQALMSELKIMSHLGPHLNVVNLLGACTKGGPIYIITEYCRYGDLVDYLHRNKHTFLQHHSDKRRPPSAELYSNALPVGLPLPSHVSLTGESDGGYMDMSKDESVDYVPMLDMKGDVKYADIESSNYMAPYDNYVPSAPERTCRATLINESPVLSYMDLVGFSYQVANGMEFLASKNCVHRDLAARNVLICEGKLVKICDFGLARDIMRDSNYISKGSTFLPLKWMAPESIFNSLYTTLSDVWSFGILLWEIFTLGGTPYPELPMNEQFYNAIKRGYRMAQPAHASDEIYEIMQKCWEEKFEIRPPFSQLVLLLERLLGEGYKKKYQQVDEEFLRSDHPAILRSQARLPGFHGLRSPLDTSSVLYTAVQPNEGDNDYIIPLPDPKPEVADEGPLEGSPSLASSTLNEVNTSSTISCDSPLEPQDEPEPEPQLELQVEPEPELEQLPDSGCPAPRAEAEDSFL

[16] = target: Protein cereblon/Mitogen-activated protein kinase kinase kinase kinase 1 (Homo sapiens, UniProt Q92918+Q96SW2); experiment: PROTAC activity at CRBN/HPK1 in human Jurkat cells assessed as degradation of HPK1 protein by Western blotting analysis; type: cell-based
Protein cereblon/Mitogen-activated protein kinase kinase kinase kinase 1, sequence (Q92918 whole entry): as the sequence (Q92918 whole entry) above
Protein cereblon/Mitogen-activated protein kinase kinase kinase kinase 1, sequence (Q96SW2 whole entry): as the sequence (Q96SW2 whole entry) above

[17] = PROTAC activity at VHL/human p38alpha in MDA-MB-231 cells assessed as p38alpha degradation; type: cell-based

Cc1cccc(CN2C(=O)c3cc(-c4nc(Nc5ccnc(C#CCCN(C)C)c5)ncc4C)cn3C[C@H]2C)n1
IC50 (Calu-6): 15900 nM | IC50 (A-375): > 30000 nM | IC50 (HCT-116): 2100 nM | DC50 [1]: 102 nM | DC50 [2]: 85 nM

CCS(=O)(=O)Nc1ccc(Oc2ccc(F)cc2F)c(-c2cn(C)c(=O)c3[nH]ccc23)c1 [MIVEBRESIB]
IC50 [3]: 2.6 nM

Cc1cc(-c2cc(NC(=O)CCC(=O)NCCOCCOCCc3ccc4c(c3)C(=O)N(C3CCC(=O)NC3=O)C4=O)ccc2Oc2ccccc2)n2cc[nH]c(=O)c12 (centres undefined)
inhibition [4]: 92.3% | IC50 (HL-60): 45.6 nM | inhibition [5]: 61.1% | IC50 (THP-1): 22.9 nM | Emax [6]: 95% | DC50 [7]: 0.75 nM | IC50 (MV4-11): 0.4 nM

COc1cc(C)[nH]c(=O)c1CNC(=O)c1cccc2c1c(C)cn2[C@H](C)C1CCN(CCCCCCCCCC(=O)N[C@H](C(=O)N2C[C@H](O)C[C@H]2C(=O)NCc2ccc(-c3scnc3C)cc2)C(C)(C)C)CC1
IC50 (MDA-MB-231 [8]): 4480 nM | IC50 (T47D): 6850 nM | IC50 (MCF7): 4150 nM | IC50 (MDA-MB-468): 1400 nM | Activity (MDA-MB-231 [9]): 68.38% | CLint scaled [10]: 150 mL/min/kg | IC50 (Pfeiffer [11]): 2050 nM | Activity (Pfeiffer [12]): 11.74% | half-life [13]: 1.07 h

COc1ccc(-c2c[nH]c3ccc(-c4ccc(N5CCN(C(=O)CCCCCNc6cccc7c6C(=O)N(C6CCC(=O)NC6=O)C7=O)CC5)cc4)cc23)cc1OC (centres undefined)
IC50 [14]: 614 nM

Nc1nc(NC2CCC(C#Cc3ccc(C(=O)Nc4ccc5c(c4)CN(C4CCC(=O)NC4=O)C5=O)cc3)CC2)sc1C(=O)c1ccccc1[N+](=O)[O-] (centres undefined)
IC50 (T47D): 41.7 nM | IC50 (MCF7): 28.9 nM

O=C1CCC(N2Cc3c(NC(=O)CCCNC(=O)c4cc(Oc5ccc(NC(=O)Nc6ccc(Cl)c(C(F)(F)F)c6)cc5)ccn4)cccc3C2=O)C(=O)N1 (centres undefined)
inhibition [15]: > 70%

COc1ccc(-c2c[nH]c3ccc(-c4ccc(N5CCN(C(=O)CCOCCNc6cccc7c6C(=O)N(C6CCC(=O)NC6=O)C7=O)CC5)cc4)cc23)cc1OC (centres undefined)
DC50 [16]: 1.8 nM | IC50 [14]: 140 nM

Cc1ccc(C(=O)NCCCc2cn(CCCC(=O)NCCCCCC(=O)N[C@H](C(=O)N3C[C@H](O)C[C@H]3C(=O)N[C@@H](C)c3ccc(-c4scnc4C)cc3)C(C)(C)C)nn2)cc1-n1c(C)cc(OCc2ccc(F)cc2F)c(Br)c1=O
DC50 [17]: 11.6 nM
